Experimental data published in article doi:10.1101/2024.10.28.620768v1 (biorxiv, 2024).

Molecular target: Cdr1 (Candida albicans, UniProt Q5ANA3)
Assay: microscale thermophoresis, Alexa Fluor 647-labelled Cdr1, Hill fit
Format: binding

Sequence of Cdr1 (Q5ANA3 whole entry): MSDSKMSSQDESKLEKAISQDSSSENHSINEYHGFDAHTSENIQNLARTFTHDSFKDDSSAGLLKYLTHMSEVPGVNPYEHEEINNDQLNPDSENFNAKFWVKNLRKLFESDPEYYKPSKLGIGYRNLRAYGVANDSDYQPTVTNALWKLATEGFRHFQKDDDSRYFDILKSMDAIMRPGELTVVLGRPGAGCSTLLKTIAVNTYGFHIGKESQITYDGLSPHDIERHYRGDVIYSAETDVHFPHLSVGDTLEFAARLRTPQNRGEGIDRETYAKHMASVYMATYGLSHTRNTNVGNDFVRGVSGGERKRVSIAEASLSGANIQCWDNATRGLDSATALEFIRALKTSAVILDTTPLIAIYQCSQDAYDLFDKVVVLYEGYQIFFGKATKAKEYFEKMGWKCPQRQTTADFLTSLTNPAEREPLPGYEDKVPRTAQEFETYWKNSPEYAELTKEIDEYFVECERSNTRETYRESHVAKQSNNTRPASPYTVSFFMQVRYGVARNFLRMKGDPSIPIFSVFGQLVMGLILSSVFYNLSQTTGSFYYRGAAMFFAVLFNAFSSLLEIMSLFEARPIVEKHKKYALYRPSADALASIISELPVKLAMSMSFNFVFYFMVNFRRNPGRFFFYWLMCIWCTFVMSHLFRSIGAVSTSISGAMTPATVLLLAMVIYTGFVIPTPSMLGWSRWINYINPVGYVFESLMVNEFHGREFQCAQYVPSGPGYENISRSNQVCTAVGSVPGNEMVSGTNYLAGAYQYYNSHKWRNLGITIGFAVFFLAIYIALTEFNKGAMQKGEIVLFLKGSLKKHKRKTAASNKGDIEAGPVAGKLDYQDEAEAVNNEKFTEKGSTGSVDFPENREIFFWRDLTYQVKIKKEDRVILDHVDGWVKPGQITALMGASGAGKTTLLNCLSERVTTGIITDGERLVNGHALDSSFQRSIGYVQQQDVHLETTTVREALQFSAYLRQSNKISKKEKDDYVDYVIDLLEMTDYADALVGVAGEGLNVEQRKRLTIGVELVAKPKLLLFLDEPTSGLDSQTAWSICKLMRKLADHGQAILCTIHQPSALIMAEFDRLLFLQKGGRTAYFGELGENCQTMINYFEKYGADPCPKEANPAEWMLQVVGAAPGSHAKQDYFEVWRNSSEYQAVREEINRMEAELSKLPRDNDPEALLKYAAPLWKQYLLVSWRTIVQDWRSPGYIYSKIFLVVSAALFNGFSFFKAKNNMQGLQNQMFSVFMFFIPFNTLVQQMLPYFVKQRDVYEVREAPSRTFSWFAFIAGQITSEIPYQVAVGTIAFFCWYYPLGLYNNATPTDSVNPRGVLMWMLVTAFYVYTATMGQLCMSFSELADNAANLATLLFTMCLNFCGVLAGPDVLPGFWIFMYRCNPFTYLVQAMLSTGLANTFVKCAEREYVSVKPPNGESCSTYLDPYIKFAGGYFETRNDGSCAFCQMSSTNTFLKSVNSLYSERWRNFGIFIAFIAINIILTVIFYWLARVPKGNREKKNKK

SMILES	Kd
O=C1OC2(c3cc(F)c(O)cc3Oc3cc(O)c(F)cc32)c2ccccc21 [Oregon Green 488]	32.8 ± 8.2 µM
CCN=c1cc2oc3cc(NCC)c(C)cc3c(-c3ccccc3C(=O)OCC)c-2cc1C [Rhodamine 6G]	59.8 ± 7.1 µM
